According to US20250312258A1, “2,3-PYRROLIDINEDIONE CONJUGATES AND METHODS OF USING THEREOF” (North Carolina State University, priority 2022, published 2025):
Like-named read-outs stand apart in the source and are kept apart here.

Tests used:
[1] = system: S. aureus 25923; assay: Broth microdilution MIC, S. aureus 25923; type: cell-based, Staphylococcus aureus; conditions: Staphylococcus aureus, 25923; read-out: MIC (S. aureus 25923)
[2] = system: S. aureus 29213; assay: Broth microdilution MIC, S. aureus 29213; type: cell-based, Staphylococcus aureus; conditions: Staphylococcus aureus
[3] = system: MRSA 33591; assay: Broth microdilution MIC, MRSA 33591; type: cell-based; conditions: Staphylococcus aureus, read-out: MIC (MRSA 33591)
[4] = system: VRSA; assay: MIC against VRSA (Table 2); type: cell-based; conditions: Staphylococcus aureus, read-out: MIC (VRSA)
[5] = system: VRSA; assay: MIC against VRSA strain panel (VRS/NRS strains); type: cell-based; conditions: Staphylococcus aureus, read-out: MIC
[6] = system: VRE; assay: MIC / in vitro activity against VRE strain panel; type: cell-based, Enterococcus spp.; conditions: Enterococcus, VRE, read-out: MIC
[7] = system: MRSA; assay: MIC against MRSA strain panel; type: cell-based; conditions: Staphylococcus aureus, the 4th table, read-out: MIC
[8] = system: MSSA; assay: MIC against MSSA strain panel; type: cell-based; conditions: Staphylococcus aureus, the 4th table, read-out: MIC
[9] = system: ATCC 29212 E. faecalis; assay: MIC against ATCC 29212 E. faecalis; type: cell-based; conditions: Enterococcus faecalis, ATCC29212, ATCC 29212 E. faecalis, read-out: MIC
[10] = system: S. pneumoniae; assay: MIC against S. pneumoniae strain panel; type: cell-based; conditions: Streptococcus pneumoniae, read-out: MIC
[11] = system: Group A Strep; assay: MIC against Group A Strep strain panel; type: cell-based; conditions: read-out: MIC
[12] = system: Group B Strep; assay: MIC against Group B Strep strain panel; type: cell-based; conditions: read-out: MIC
[13] = system: E. coli; assay: MIC against E. coli strains; type: cell-based; conditions: the 4th table

Measured: MIC

CCC1C(c2ccc(C(F)(F)F)cc2)=C(O)C(=O)N1CCCNCCCCNC (stereo not drawn) [Compound 8]
< 0.125 mg/L: [11]; 2007-28 Group A Strep, the 8th table
0.5 mg/L: [3] | [7]; 6217 MRSA | [7]; 6231 MRSA | [7]; AR-979 MRSA | [8]; VGP16-94 MSSA | [8]; VGP16-96 MSSA | [8]; VGP16-97 MSSA | [8]; VGP16-98 MSSA | [10]; CT0200-2730 S. pneumoniae, the 7th table
8 mg/L: [5]; VRSA, VRS-2 (VRSA), the 3rd table | [5]; VRSA, VRS-2 VRSA, the 5th table
16 mg/L: [5]; VRSA, VRS-4 (VRSA), the 3rd table | [5]; VRSA, VRS-4 VRSA, the 5th table | [6]; 1751 (VRE), the 3rd table | [6]; 1751 VRE, the 6th table | [6]; 3183 (VRE), the 3rd table | [6]; 3183 VRE, the 6th table | [6]; 3222 (VRE, the 3rd table) | [6]; 3222 VRE, the 6th table | [6]; 3235 VRE, the 6th table
2 mg/L: [4] | [5]; NRS 2 / VRSA, NRS-2 VRSA, the 5th table
>64 mg/L: [13]; AR-137 E. coli
0.25 mg/L: [1] | [10]; ATCC49619, ATCC 49619 S. pneumoniae, CA-MHB w/5% LHB, the 4th table | [10]; ATCC49619, ATCC 49619 S. pneumoniae, the 7th table | [10]; CO314937 S. pneumoniae, CA-MHB w/5% LHB, the 4th table | [10]; CT3-5008 S. pneumoniae, the 7th table | [10]; CT3-5803 S. pneumoniae, the 7th table | [10]; CT3-8501 S. pneumoniae, the 7th table | [10]; CT4-3048 S. pneumoniae, the 7th table | [10]; CT4-9693 S. pneumoniae, the 7th table | [10]; CT5-6541 S. pneumoniae, the 7th table | [10]; CT5-8032 S. pneumoniae, the 7th table | [10]; CT5-9124 S. pneumoniae, the 7th table | [10]; CT6-0670 S. pneumoniae, the 7th table | [10]; CT6-7691 S. pneumoniae, the 7th table | [10]; CT0200-2241 S. pneumoniae, the 7th table | [10]; MD77773 S. pneumoniae, CA-MHB w/5% LHB, the 4th table | [11]; 2007-11 Group A Strep, the 8th table | [11]; 2007-107 Group A Strep, the 8th table | [11]; 2008-1565 Group A Strep, the 8th table | [11]; 2008-1692 Group A Strep, the 8th table | [11]; 2009-8 Group A Strep, the 8th table | [11]; 2009-106 Group A Strep, the 8th table | [11]; 2009-114 Group A Strep, the 8th table | [12]; 2008-57 Group B Strep, the 9th table | [12]; 2008-87 Group B Strep, CA-MHB w/5% LHB, the 4th table | [12]; 2008-115 Group B Strep, the 9th table | [12]; 2009-20 Group B Strep, the 9th table | [12]; 2009-40 Group B Strep, the 9th table | [12]; 2009-57 Group B Strep, the 9th table | [12]; 2009-59 Group B Strep, the 9th table | [12]; 2009-60 Group B Strep, the 9th table | [12]; 2009-61 Group B Strep, CA-MHB w/5% LHB, the 4th table | [12]; J4183 Group B Strep, the 9th table | [12]; J4185 Group B Strep, the 9th table | [12]; J4186 Group B Strep, the 9th table | [12]; J4222 Group B Strep, the 9th table
64 mg/L: [5]; VRSA, VRS-8 VRSA, the 5th table | [5]; VRSA, VRS-9 VRSA, the 5th table | [5]; VRSA, VRS-11a VRSA, the 5th table | [5]; VRSA, VRS-11b VRSA, the 5th table
≤ 0.125 mg/L: [10]; CT4-9046 S. pneumoniae, the 7th table | [11]; 2007-49 Group A Strep, the 8th table | [11]; 2007-73 Group A Strep, the 8th table | [11]; 2007-1101 Group A Strep, the 8th table | [11]; 2008-06 Group A Strep, the 8th table | [11]; 2008-45 Group A Strep, the 8th table | [11]; 2008-818 Group A Strep, CA-MHB w/5% LHB, the 4th table | [11]; 2008-1732 Group A Strep, CA-MHB w/5% LHB, the 4th table | [11]; 2009-37 Group A Strep, CA-MHB w/5% LHB, the 4th table | [11]; 2009-109 Group A Strep, the 8th table | [11]; 2009-136 Group A Strep, the 8th table | [12]; 2008-70 Group B Strep, the 9th table | [12]; 2009-43 Group B Strep, the 9th table | [12]; 2009-51 Group B Strep, the 9th table | [12]; 2009-62 Group B Strep, CA-MHB w/5% LHB, the 4th table | [12]; J4182 Group B Strep, the 9th table
4 mg/L: [5]; NRS 1 / VRSA, NRS-1 (VRSA), the 3rd table | [5]; NRS 1 / VRSA, NRS-1 VRSA, the 5th table | [5]; VRSA, VRS-3a VRSA, the 5th table | [9]; the 6th table
0.25 to 0.5 mg/L: [2]; 29213, read-out: MIC (S. aureus 29213)
32 mg/L: [5]; VRSA, VRS-1 (VRSA), the 3rd table | [5]; VRSA, VRS-1 VRSA, the 5th table | [5]; VRSA, VRS-5 VRSA, the 5th table | [5]; VRSA, VRS-6 VRSA, the 5th table | [5]; VRSA, VRS-7 VRSA, the 5th table | [5]; VRSA, VRS-10 VRSA, the 5th table | [6]; 1593 (VRE), the 3rd table | [6]; 1593 VRE, the 4th table | [6]; 1772 VRE, the 6th table | [6]; 1946 VRE, the 6th table | [6]; 2059 VRE, the 6th table | [6]; 2431 (VRE), the 3rd table | [6]; 2431 VRE, the 6th table | [6]; 2574 VRE, the 6th table | [6]; 3053 VRE, the 6th table | [6]; 3190 VRE, the 6th table | [6]; 3191 VRE, the 6th table | [6]; 3239 VRE, the 6th table | [6]; 3241 VRE, the 6th table | [6]; 3623 VRE, the 6th table
1 mg/L: [2]; ATCC 29213 / MRSA, ATCC 29213 MRSA, the 4th table, read-out: MIC | [2]; ATCC 29213 / MRSA, ATCC 29213 MRSA, the 5th table, read-out: MIC | [7]; 6215 MRSA | [7]; 6218 MRSA | [7]; 6220 MRSA | [7]; AR-978 MRSA | [7]; AR-993 MRSA | [7]; AR-997 MRSA | [8]; VGP16-95 MSSA | [8]; VGP16-99 MSSA | [8]; VGP16-100 MSSA | [8]; VGP16-101 MSSA | [8]; VGP16-116 MSSA | [8]; VGP16-117 MSSA | [9]; the 4th table
> 64 mg/L: [5]; VRSA, VRS-3b VRSA, the 5th table | [13]; Escherichia coli, ATCC25922, ATCC 25922 E. coli, read-out: MIC | [13]; Escherichia coli, AR-451 E. coli, read-out: MIC
